Experimental data reported in PMC10023787, “Trio-pharmacophore DNA-encoded chemical library for simultaneous selection of fragments and linkers” (Nature Communications, 2023).
Like-named read-outs stand apart in the source and are kept apart here.

Columns and labels:
MMP-2 = biological target: T1, MMP-2 (Homo sapiens, UniProt P08253); assay: MMP-2 inhibition assay (fluorogenic peptide substrate); assay type: biochemical
T1 construct: purchased Sino Biological 10082-HNAH
T1 sequence (P08253 110-660): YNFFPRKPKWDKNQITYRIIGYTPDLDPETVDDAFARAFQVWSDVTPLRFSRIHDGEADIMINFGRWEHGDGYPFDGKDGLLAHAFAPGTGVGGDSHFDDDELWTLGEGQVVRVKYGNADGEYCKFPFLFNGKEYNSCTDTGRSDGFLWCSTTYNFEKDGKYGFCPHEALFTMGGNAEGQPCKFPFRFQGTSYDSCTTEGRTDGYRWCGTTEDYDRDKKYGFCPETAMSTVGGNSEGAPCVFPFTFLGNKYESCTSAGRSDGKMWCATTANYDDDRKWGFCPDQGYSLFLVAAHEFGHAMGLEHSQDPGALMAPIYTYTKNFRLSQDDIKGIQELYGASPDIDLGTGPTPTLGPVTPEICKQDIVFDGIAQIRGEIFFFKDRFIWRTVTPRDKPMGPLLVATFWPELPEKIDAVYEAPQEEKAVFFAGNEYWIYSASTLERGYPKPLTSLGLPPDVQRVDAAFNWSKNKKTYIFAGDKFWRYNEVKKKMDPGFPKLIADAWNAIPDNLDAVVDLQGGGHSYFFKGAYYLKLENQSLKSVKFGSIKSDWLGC
Summary of the method: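 Hydrolysis of DNP-Pro-Leu-Gly-Met-Trp-Ser-Arg (25 μM final) was tracked kinetically at em 360 nm over 30 min. Enzymes, APMA-activated and at 10 nM (MMP-9) or 6.5 nM (MMP-2) final, sat 30 min at RT with inhibitor in pH 7.5 Tris buffer with CaCl2 and Brij 35 first. Logistic fitting of Vmax against concentration gave IC50, in triplicate.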

MMP-9 = biological target: T2, MMP-9 (Homo sapiens, UniProt P14780); assay: Dynamic dual-pharmacophore DEL selection against MMP-9, NGS decoding; assay type: binding
T2 construct: purchased Sino Biological 10327-HNAH
Text: Matrix metalloproteinases (MMPs) are zinc-dependent endopeptidases capable of degrading and remodeling extracellular matrix components[46],[47]. They are attractive therapeutic targets as high expression levels were detected in various diseases, such as inflammatory diseases, and at different stages of cancers, including metastasis, invasion, and angiogenesis[47]–[53]. As shown in Supplementary Fig. 3c, we performed selections against the two gelatinases (human MMP-2 and human MMP-9) to identify binding fragments for later design and synthesis of small molecule inhibitors. After selection, the three sub-libraries were decoded, and the enrichment was calculated by dividing the post-selection fraction (count/total counts) by the pre-selection fraction (Fig. 4a and Supplementary Fig. 13).
4 µg of MMP-2/MMP-9 was dissolved in 100 µl of selection buffer containing 25 mM Tris-base, 10 mM CaCl2, 150 mM NaCl, 0.05% Tween 20, pH 7.5. 10 µl of 4-Aminophenylmercuric acetate (APMA) (100 mM) solution was added to the protein solution and incubated at 37 °C for 1 h. After activation, the solution was added on top of 40 µl pre-washed Ni-NTA resin and incubated for 30 min on a rotary shaker. The supernatant was discarded, and the resin was washed three times with the selection buffer.
For each independent selection, three sub-libraries were mixed in the selection buffer with a final concentration of 40 nM of each sub-library in 100 µl. The mixture was heat denatured at 90 °C for 1 min and slowly cooled down to allow the formation of the trio-pharmacophore library. The dynamic dual-pharmacophore DEL was provided by DyNAbind GmbH (Merck, DYNA001).
The assembled library was incubated with the protein-bound solid support for 2 h at RT on a rotary shaker. In parallel, selection on bare solid support served as the negative control to exclude promiscuous binders on the resin. After panning, the supernatant was discarded, and the resin was washed three times with 1 ml selection buffer. Finally, 100 µl of 50 mM Tris buffer, pH 7.4 was added to resuspend the resin and the resin was incubated at 95 °C for 5 min to denature the protein, release, and collect the bound library members.
The eluted library members were subjected to sample preparation for NGS. NGS preparation was achieved by two-step PCR. First, the individual selection was indexed using primers containing unique sequences corresponding to each selection. The amplified product was purified from 2% agarose gel. Second, the purified DNA from all selections were pooled in equal amount and subjected to the 2nd PCR step to attach sequences compatible with the NGS flow cell and the sequencing primers. NGS was performed by Novogene UK with Novaseq 6000. Raw data files (fastq files) obtained were decoded using a custom python script and excel. The sequence reads corresponding to each sample was retrieved by searching for the correct index unique to each selection. Then, the code region was extracted from each sequence and assigned to the corresponding identity. The count of each code in each selection sample was obtained by looping through the total reads and counting the occurrence of each code. The enrichment fold of each compound was calculated by first, dividing the count by the total count to get the abundance, second, the abundance after the selection was divided by the abundance of pre-selection to reflect the distribution change of the compound. Next, the enrichment fold was plotted against the count for each member of the library to give the scatter plots as in Fig. 4.

[1] = read-out: Mean (MMP-2, Supplementary fig 16)
[2] = read-out: Mean (MMP-2 dose-response, Supplementary fig 15)
[3] = read-out: Mean (dose-response, Supplementary fig 17)
[4] = read-out: Normalized activity (Mean)

T2 sequence (P14780 107-707 limits assumed): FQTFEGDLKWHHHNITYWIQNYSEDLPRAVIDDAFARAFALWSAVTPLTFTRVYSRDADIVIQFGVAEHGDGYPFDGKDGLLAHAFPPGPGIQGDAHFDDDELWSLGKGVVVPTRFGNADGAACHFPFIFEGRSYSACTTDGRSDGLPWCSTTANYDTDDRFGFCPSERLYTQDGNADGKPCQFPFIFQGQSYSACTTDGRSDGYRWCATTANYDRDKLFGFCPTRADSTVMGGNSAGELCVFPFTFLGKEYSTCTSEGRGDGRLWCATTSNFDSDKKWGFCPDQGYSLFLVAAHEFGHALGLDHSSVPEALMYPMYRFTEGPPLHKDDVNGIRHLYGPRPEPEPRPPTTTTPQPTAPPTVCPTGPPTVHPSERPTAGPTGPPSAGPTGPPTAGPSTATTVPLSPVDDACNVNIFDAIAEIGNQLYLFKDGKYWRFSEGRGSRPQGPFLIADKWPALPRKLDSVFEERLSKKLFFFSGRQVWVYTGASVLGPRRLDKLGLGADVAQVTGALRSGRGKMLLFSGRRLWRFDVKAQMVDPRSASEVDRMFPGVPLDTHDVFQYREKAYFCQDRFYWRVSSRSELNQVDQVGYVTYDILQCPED

NCc1c[nH]nn1 [Compound 787]
remaining activity at 0.0156098 µM (MMP-2; Figure 5a, fragment concentration 0.0156098 µM, read-out: Normalized activity (Mean)): 101% | remaining activity at 0.0780488 µM (MMP-2; Figure 5a, fragment concentration 0.0780488 µM, read-out: Normalized activity (Mean)): 93.4% | remaining activity at 0.390244 µM (MMP-2; Figure 5a, fragment concentration 0.390244 µM, read-out: Normalized activity (Mean)): 108% | remaining activity at 1.95122 µM (MMP-2; Figure 5a, fragment concentration 1.95122 µM, read-out: Normalized activity (Mean)): 92.2% | remaining activity at 9.7561 µM (MMP-2; Figure 5a, fragment concentration 9.7561 µM, read-out: Normalized activity (Mean)): 105% | remaining activity at 48.7805 µM (MMP-2; Figure 5a, fragment concentration 48.7805 µM, read-out: Normalized activity (Mean)): 96.9% | remaining activity at 243.902 µM (MMP-2; Figure 5a, fragment concentration 243.902 µM, read-out: Normalized activity (Mean)): 87.8% | remaining activity at 1219.51 µM (MMP-2; Figure 5a, fragment concentration 1219.51 µM, read-out: Normalized activity (Mean)): 57.1% | remaining activity at 0.0156 µM (MMP-2; MMP-2, concentration 0.0156 µM, read-out: Mean (MMP-2, Supplementary fig 16)): 101% | remaining activity at 0.08 µM (MMP-2; MMP-2, concentration 0.08 µM, read-out: Mean (MMP-2, Supplementary fig 16)): 93.5% | remaining activity at 0.39 µM (MMP-2; MMP-2, concentration 0.39 µM, read-out: Mean (MMP-2, Supplementary fig 16)): 108% | remaining activity at 1.95 µM (MMP-2; MMP-2, concentration 1.95 µM, read-out: Mean (MMP-2, Supplementary fig 16)): 92.2% | remaining activity at 9.76 µM (MMP-2; MMP-2, concentration 9.76 µM, read-out: Mean (MMP-2, Supplementary fig 16)): 105% | remaining activity at 48.78 µM (MMP-2; MMP-2, concentration 48.78 µM, read-out: Mean (MMP-2, Supplementary fig 16)): 96.9% | remaining activity at 243.9 µM (MMP-2; MMP-2, concentration 243.90 µM, read-out: Mean (MMP-2, Supplementary fig 16)): 87.8% | remaining activity at 0.0156 µM (MMP-2; MMP-2, concentration 0.0156 µM, read-out: Mean (MMP-2 dose-response, Supplementary fig 15)): 101% | remaining activity at 0.0156 µM (MMP-2; MMP-2, concentration 0.0156 µM, read-out: Mean (dose-response, Supplementary fig 17)): 101% | remaining activity at 0.08 µM (MMP-2; MMP-2, concentration 0.08 µM, read-out: Mean (MMP-2 dose-response, Supplementary fig 15)): 93.5% | remaining activity at 0.08 µM (MMP-2; MMP-2, concentration 0.08 µM, read-out: Mean (dose-response, Supplementary fig 17)): 93.5% | remaining activity at 0.39 µM (MMP-2; MMP-2, concentration 0.39 µM, read-out: Mean (MMP-2 dose-response, Supplementary fig 15)): 108% | remaining activity at 0.39 µM (MMP-2; MMP-2, concentration 0.39 µM, read-out: Mean (dose-response, Supplementary fig 17)): 108% | remaining activity at 1.95 µM (MMP-2; MMP-2, concentration 1.95 µM, read-out: Mean (MMP-2 dose-response, Supplementary fig 15)): 92.2% | remaining activity at 1.95 µM (MMP-2; MMP-2, concentration 1.95 µM, read-out: Mean (dose-response, Supplementary fig 17)): 92.2% | remaining activity at 9.75 µM (MMP-2; MMP-2, concentration 9.75 µM, read-out: Mean (MMP-2 dose-response, Supplementary fig 15)): 105% | remaining activity at 9.76 µM (MMP-2; MMP-2, concentration 9.76 µM, read-out: Mean (dose-response, Supplementary fig 17)): 105% | remaining activity at 48.76 µM (MMP-2; MMP-2, concentration 48.76 µM, read-out: Mean (MMP-2 dose-response, Supplementary fig 15)): 96.9% | remaining activity at 48.78 µM (MMP-2; MMP-2, concentration 48.78 µM, read-out: Mean (dose-response, Supplementary fig 17)): 96.9% | remaining activity at 243.8 µM (MMP-2; MMP-2, concentration 243.80 µM, read-out: Mean (MMP-2 dose-response, Supplementary fig 15)): 87.8% | remaining activity at 243.9 µM (MMP-2; MMP-2, concentration 243.90 µM, read-out: Mean (dose-response, Supplementary fig 17)): 87.8% | remaining activity at 1219.51 µM (MMP-2; MMP-2, concentration 1219.51 µM, read-out: Mean (dose-response, Supplementary fig 17)): 57.1% | MMP9 3L Enrichment Fold (MMP-9; MMP9 selection, 3L library (Supplementary fig 13)): 3.649 | MMP9 3L Count (MMP-9; MMP9 selection, 3L library, sequence count (Supplementary fig 13)): 3684 | MMP9 5L Enrichment Fold (MMP-9; MMP9 selection, 5L library (Supplementary fig 13)): 0.7364 | MMP9 5L Count (MMP-9; MMP9 selection, 5L library, sequence count (Supplementary fig 13)): 628

O=C(O)c1cncc(O)c1 [Compound 828]
inhibitory effect (MMP-2; in words): high µM range | IC50 (MMP-2; mean ± SE, n.d: not detected, Fig. 5d unit inferred, µM, read-out: IC50): 385 ± 67.3 µM | remaining activity at 0.0156 µM (MMP-2; [1]): 104% | remaining activity at 0.08 µM (MMP-2; [1]): 94% | remaining activity at 0.39 µM (MMP-2; [1]): 105% | remaining activity at 1.95 µM (MMP-2; [1]): 107% | remaining activity at 9.76 µM (MMP-2; [1]): 90.1% | remaining activity at 48.78 µM (MMP-2; [1]): 83.6% | remaining activity at 243.9 µM (MMP-2; [1]): 67.9% | remaining activity at 1219.51 µM (MMP-2; [1]): 0% | remaining activity at 0.0156 µM (MMP-2; [2]): 104% | remaining activity at 0.08 µM (MMP-2; [2]): 94% | remaining activity at 0.39 µM (MMP-2; [2]): 105% | remaining activity at 1.95 µM (MMP-2; [2]): 107% | remaining activity at 9.76 µM (MMP-2; [2]): 90.1% | remaining activity at 48.78 µM (MMP-2; [2]): 83.6% | remaining activity at 243.9 µM (MMP-2; [2]): 67.9% | remaining activity at 1219.51 µM (MMP-2; [2]): 0% | remaining activity at 0.0156 µM (MMP-2; [3]): 104% | remaining activity at 0.08 µM (MMP-2; [3]): 94% | remaining activity at 0.39 µM (MMP-2; [3]): 105% | remaining activity at 1.95 µM (MMP-2; [3]): 107% | remaining activity at 9.76 µM (MMP-2; [3]): 90.1% | remaining activity at 48.78 µM (MMP-2; [3]): 83.6% | remaining activity at 243.9 µM (MMP-2; [3]): 67.9% | remaining activity at 1219.51 µM (MMP-2; [3]): 0% | remaining activity at 0.0156098 µM (MMP-2; [4]): 104% | remaining activity at 0.0780488 µM (MMP-2; [4]): 94% | remaining activity at 0.390244 µM (MMP-2; [4]): 105% | remaining activity at 1.95122 µM (MMP-2; [4]): 107% | remaining activity at 9.7561 µM (MMP-2; [4]): 90.1% | remaining activity at 48.7805 µM (MMP-2; [4]): 83.6% | remaining activity at 243.902 µM (MMP-2; [4]): 67.9% | remaining activity at 1219.51 µM (MMP-2; [4]): 0% | Enrichment Fold (MMP-9; MMP9 3L (3' sub-library members)): 10.2969 | Count (MMP-9; MMP9 3L (3' sub-library members), NGS sequence count after selection): 32127
